Test [1] has as its system MDA-MB-231 breast cancer cells. In words: MTT cell viability assay, MDA-MB-231. It is filed as cell-based, human. Particulars: for IC50: Homo sapiens; for Fold change: MDA-MB-231, IC50 at 1% O2 to IC50 at 21% O2. How it is done:
(§1) Cells (5×10^3) were cultured in 96-well plates and pre-incubated under 21% O2 or 1% O2 for 4 h following the addition of drugs for 72 h. Cell viability was measured using the 3-(4,5-dimethylthiazol-2-yl)-2,5-diphenyltetrazolium bromide (MTT) dye (Life Technologies) according to manufacturer's instructions. Because hypoxic conditions may affect the reduction of MTT to formazan, incubation of all cell cultures with MTT were performed under normoxic conditions. Each experiment was performed in triplicate and at least three independent experiments were performed. Log-scale dose-response data were plotted on a graph and a three-parameter non-linear regression was applied to determine IC50 values. For calculation of the IC50s, both normoxic and hypoxic drug-treated samples were normalized with their untreated counterpart.
(§2) To assess the role of pH in hypoxia-induced resistance to anthracyclines, the human breast cancer MDA-MB-231 and fibrosarcoma HT-1080 cell lines were incubated in the presence or absence of the commonly used anthracycline drugs, doxorubicin (Dox), daunorubicin (Dau) and the anthracycline analog drug, mitoxantrone (Mtx), under hypoxic (1% O2) or normoxic (21% O2) conditions for 72 hours. Cell viability was then assessed using the MTT assay. The impact of extracellular pH on Dox uptake by HT-1080 was also assessed.
On the technique in general: Tetrazolium assays rely on reduction of a dye to a coloured formazan, in cell work by metabolically active cells.

Test [2] relates to HT-1080 tumor xenografts. In words: Chorioallantoic membrane (CAM) xenograft assay, HT-1080. The conditions noted are these: HT-1080 on CAM. It is filed as in vivo, chick embryo. How it is done:
Fertilized eggs from white leghorn chicken were obtained from Public Health Agency of Canada (Nepean, ON). Ethics approval was obtained from the Ethics Committee on Animal Research of the University of Sherbrooke and all experimental procedures involving embryos were conducted in accordance with the regulations of the Canadian Council on Animal Care. Eggs were incubated in an Ova-Easy egg incubator (Brinsea) at 37° C. with 60% humidity. At Day 3, eggs were cracked as described^67. At Day 9, HT-1080 and MDA-MB-231 cell suspensions (1×10^6 and 2×10^6 cells, respectively) were mixed (1:1) with growth factor reduced Matrigel (BD Biosciences) in a total volume of 20 μl. Cell grafts were placed on top of the CAM and eggs were returned to the incubator for 96 h until Day 13 (n>6 chick embryos per cell line). When mentioned, 50 μl of Dox were added topically to the formed tumors (Day 13 after tumor cell grafting). At Day 16, chick embryos were euthanatized by decapitation. Tumors were removed and tumor volumes were calculated using the formula: (Dd^2/3). For RNA quantification, tumors were immediately snap-frozen in liquid nitrogen and kept at −80° C. until RNA extraction using the Trizol reagent.
To determine whether these observations were of relevance to tumor therapy in vivo, the inventors used an ex ovo chorioallantoic membrane (CAM) xenograft model in live chicken embryos^40. MDA-MB-231 or HT-1080 cells, or cells expressing either the NHE6^527-588 competing fragment or its scrambled counterpart were inoculated onto the CAM of 9-day-old chick embryos. After allowing 3 days for cells to engraft, tumors were treated with Doxorubicin or PBS. Four days later, chick embryos were euthanized, and tumors were removed for analysis (FIG. 10A). To first ascertain that tumors implanted in CAM developed hypoxia, total mRNA was extracted from tumors generated by untransfected HT-1080 cells and gene expression of the hypoxic markers CA9, GLUT1 and MCT4 was measured by qPCR. […]

Test [3] deals with HT-1080 fibrosarcoma cells. In words: MTT cell viability assay, HT-1080. The conditions noted are these: for Fold change: HT-1080, IC50 at 1% O2 to IC50 at 21% O2; for IC50: Homo sapiens. The format is cell-based, human. How it is done: as §1, §2
The test system of test [4] is HT-1080 overexpressing NHE6^527-588 peptide. In words: MTT cell viability assay in HT-1080 expressing NHE6^527-588 or scrambled peptide. The format is cell-based, human. The conditions noted are these: for IC50: Homo sapiens, read-out: IC50 of doxorubicin. How it is done: peGFP-N3-NHE6 was generously provided by Hiroshi Kanazawa (Osaka University, Japan). pcDNA3-HA/NHE6 was constructed from peGFP-N3-NHE6. For this, the entire NHE6 coding sequence was excised with BamHI and EcoRI restriction enzymes and cloned in pcDNA3-HA vector. pcDNA3-HA/NHE6^527-588 was designed from pcDNA3-HA/NHE6 using the following primers: […]
HT-1080 cells were stably transfected with Polyethylenimine (PEI, MirusBio) and positive cells were selected with Geneticin™ (G418) at 400 μg/mL. In the case of MDA-MB-231 cells, plasmids were transfected using Lipofectamine™ 2000 ([…]) and G418 was added to cell cultures at a concentration of 2 mg/mL.
as §1
The middle portion (position 527-588) of the NHE6 cytoplasmic tail has previously been reported to interact with RACK1^31. Stable HT-1080 cells expressing the NHE6^527-588 fragment or a scrambled counterpart were generated.

Where [5] appears, read: Baf 100 nM or Cq 10 μM where combined.

The results in this text go back to patent publication US10973840B2, “Methods of sensitizing tumor cells to weak base chemotherapeutic drugs” (SOCPRA SCIENCES SANTÉ ET HUMAINES S.E.C., priority 2017, dated 2021).

Where two headings read alike, the source gives them in different places.

The term IC50 denotes the point on the concentration scale where inhibition reaches its midpoint. Regarding `COc1cccc2c1C(=O)c1c(O)c3c(c(O)c1C2=O)C[C@@](O)(C(=O)CO)C[C@@H]3O[C@H]1C[C@H](N)[C@H](O)[C@H](C)O1` [Dox, doxorubicin], the IC50 was 688 nM in test [1] (MDA-MB-231, 72 h, MDA-MB-231, 1% O2, 72 h, read-out: IC50 of anthracyclines); 125 nM in test [1] (MDA-MB-231, 72 h, MDA-MB-231, 21% O2, 72 h, read-out: IC50 of anthracyclines); 852 nM in test [1] (MDA-MB-231, MDA-MB-231, 1% O2, Baf 100 nM or Cq 10 μM where combined, read-out: IC50 of doxorubicin, cells treated with neutralizing agents); 168 nM in test [1] (MDA-MB-231, MDA-MB-231, 21% O2, Baf 100 nM or Cq 10 μM where combined, read-out: IC50 of doxorubicin, cells treated with neutralizing agents); 301 nM in test [3] (HT-1080, 72 h, HT-1080, 1% O2, 72 h, read-out: IC50 of anthracyclines); 73.4 nM in test [3] (HT-1080, 72 h, HT-1080, 21% O2, 72 h, read-out: IC50 of anthracyclines). Moreover, the IC50 turned out to be 448 nM in test [3] (HT-1080, HT-1080, 1% O2, Baf 100 nM or Cq 10 μM where combined, read-out: IC50 of doxorubicin, cells treated with neutralizing agents); 113 nM in test [3] (HT-1080, HT-1080, 21% O2, Baf 100 nM or Cq 10 μM where combined, read-out: IC50 of doxorubicin, cells treated with neutralizing agents); 521 nM in test [4] (HT-1080, HT-1080 expressing scrambled peptide (scr), 1% O2); 117 nM in test [4] (HT-1080, HT-1080 expressing scrambled peptide (scr), 21% O2); 224 nM in test [4] (HT-1080, HT-1080 overexpressing NHE6^527-588 peptide, 1% O2); 137 nM in test [4] (HT-1080, HT-1080 overexpressing NHE6^527-588 peptide, 21% O2). Further, the Fold change in test [1] amounted to 5.5 fold; in test [1] (setting [5]), 5.1 fold; in test [3], 4.1 fold; in test [3] (setting [5]), 4.0 fold. Also, the tumor growth entry in test [2] (0.5 μM Dox) is “unaffected”; in test [2] (2 μM Dox topical), “significantly reduced”. Further, in test [3] (HT-1080 cells (so in the source), 1% O2 vs 21% O2), the “increase in resistance toward the drug by hypoxia” value came to 5.5 fold. Also, the Fold in test [4] (NHE6^527-588, 1% O2 vs 21% O2) was 1.6 fold; in test [4] (scr, 1% O2 vs 21% O2) it was 4.4 fold.
